Data reported in patent US10463644B2, “Uses of sesquiterpene lactone compounds and their derivatives in drugs preparation” (ACCENDATECH, priority 2013, dated 2019).

Legend:
[1] = tested on: cancer cells; test: Survival rate of cancer cells after test compound is added (flow cytometry, Annexin V-FITC/PI, clinical specimen); format: cell-based, patient
From the text: (§1) Take fresh or cryopreserved clinical specimen (acute myelogenous leukemia (AML, marker is CD34^+/CD38^+), chronic myelogenous leukemia (CML, Ph+/CD34+/CXCR4+), chronic lymphocytic leukemia (CLL,CD133+/CD19−/CD38−), skin cancer (CD34+), breast cancer (CD44+/CD24−/ESA+), ovarian cancer (CD44+/CD117+), brain tumor (CD133+) prostate cancer (CD44+/CD24−), head-neck squamous cell carcinoma (CD44+), laryngeal cancer (CD133+), pancreatic cancer (ESA+/CD44+/CD24+), retinoblastoma (ABCG2/ALDH1), Children hepatoblastoma (CD34+/THY1+/c-kit+), liver cancer (CD133+), malignant melanoma (CD133+), colorectal cancer (EpCAM^high/CD44+), colon adenocarcinoma (CD44^high), glioma (ABCG-2/BCRP1), gastrointestinal tumor (ABCG-2/BCRP1), nasopharynx cancer (ABCG2), brain glioma (Dlk-1/Pref-1), gastric cancer (CD45+), lung adenocarcinoma (Sca-1/CD45-/Pecam-/CD34+), lung cancer (CD133+CD34+CD44+)) of patient. Take the acute myelogenous leukemia as the example, conduct density gradient centrifugation with Ficoll and take out the middle mononuclear cells, re-suspend it with serum-free IMDM after centrifuged. Adjust the concentration of cells into 1×10^6/mL and lay 24-well plate with 1 mL in each well, and then treat 18 hours with the compound to select with corresponding concentration. Collect the cells and centrifuge them at 1500 rps for 8 minutes, re-suspend the precipitation with […], mark the antibodies related to leukemia stem cell, avoid light to incubate 30 minutes at room temperature and then centrifuge it at 1500 rps, then wash away the unbound antibody CD34^+CD38^+. Re-suspend it with 100 μl 1× Binding Buffer and add respectively 5 μl Annexin V-FITC and PI, then avoid light to incubate 15 minutes before add 200 μl 1× Binding Buffer, then use flow cytometry to examine the marked apoptosis within one hour.

[2] = tested on: normal cells; test: Survival rate of normal cells after test compound is added (flow cytometry, Annexin V-FITC/PI); format: cell-based
From the text: as §1

[3] = tested on: IL-1β secreted by synoviocyte; test: Content of IL-1β in culture supernatant of synoviocyte of RA model rats given test compound; format: in vivo; conditions: rat RA model, dose 30 mg/kg.2d; normal control 0.16 ± 0.034, NaCl 0.49 ± 0.136
From the text: (§2) Take Compound 1-50 prepared as per the method according to the present invention and employ the method provided in Reference to prepare model, group drugs and prepare culture supernatant of rat synoviocyte.
(§3) Employ the method provided in Reference to investigate the effects of the test compounds on the synoviocyte to secrete TNF-α and PGE2. Employ the method provided in Reference to investigate the effects of the test compounds on the synoviocyte to secrete IL-1β.
(§4) The experimental data of the test compound 1-50 at a dose of 30 mg/kg.2d as well as the normal control and NaCl group are as follows: […]

[4] = tested on: PGE2 secreted by synoviocyte; test: Content of PGE2 in culture supernatant of synoviocyte of RA model rats given test compound; format: in vivo; conditions: rat RA model, dose 30 mg/kg.2d; normal control 8.34 ± 1.29, NaCl 32.44 ± 10.32
From the text: as §2, §3, §4

[5] = tested on: TNF-α secreted by synoviocyte; test: Content of TNF-α in culture supernatant of synoviocyte of RA model rats given test compound; format: in vivo; conditions: rat RA model, dose 30 mg/kg.2d; normal control 0.38 ± 0.027, NaCl 0.74 ± 0.098
From the text: as §2, §3, §4

[6] = tested on: cancer stem cells; test: Survival rate of cancer stem cells after test compound is added (flow cytometry, Annexin V-FITC/PI, clinical specimen); format: cell-based, patient
From the text: as §1

[7] = Children hepatoblastoma, 10.0 μM
[8] = Children hepatoblastoma, 20.0 μM
[9] = Gastrointestinal tumor, 10.0 μM
[10] = Gastrointestinal tumor, 20.0 μM
[11] = Head and neck squamous cell carcinomas, 10.0 μM
[12] = Head and neck squamous cell carcinomas, 20.0 μM

CN(C)C[C@@H]1C(=O)O[C@H]2[C@H]1CCC1(CC1)[C@@H]1CCC3(CC3)[C@H]21.Cl [Compound 28]
76%: Survival rate (%) Stem cells ([6]; AML, 20.0 μM) | Survival rate (%) Stem cells ([6]; Brain glioma, 20.0 μM) | Survival rate (%) Stem cells [6, 10] | Survival rate (%) Stem cells ([6]; Lung cancer, 20.0 μM)
0.47 ± 0.056 ng/mL: Content of TNF-α in culture supernatant of synoviocyte (x ± s) [5]
75%: Survival rate (%) Stem cells ([6]; Breast cancer, 20.0 μM) | Survival rate (%) Stem cells ([6]; Colorectal cancer, 20.0 μM) | Survival rate (%) Stem cells [6, 12]
96%: Survival rate (%) All cells (Stem cells and ordinary cells) ([2]; 10.0 μM)
82%: Survival rate (%) Stem cells ([6]; Brain glioma, 10.0 μM) | Survival rate (%) Stem cells ([6]; Brain tumor, 10.0 μM) | Survival rate (%) Stem cells ([6]; CLL, 10.0 μM) | Survival rate (%) Stem cells ([6]; Colon adenocarcinoma, 10.0 μM) | Survival rate (%) Stem cells [6, 9] | Survival rate (%) Stem cells ([6]; Liver cancer, 10.0 μM)
94%: Survival rate (%) All cells (Stem cells and ordinary cells) ([1]; AML, 10.0 μM) | Survival rate (%) All cells (Stem cells and ordinary cells) ([1]; Lung cancer, 10.0 μM) | Survival rate (%) Stem cells ([2]; 10.0 μM)
18.92 ± 1.98 ng/mL: Content of PGE2 in culture supernatant of synoviocyte (x ± s) [4]
85%: Survival rate (%) All cells (Stem cells and ordinary cells) ([1]; Colon adenocarcinoma, 20.0 μM) | Survival rate (%) All cells (Stem cells and ordinary cells) ([1]; Ovarian cancer, 20.0 μM) | Survival rate (%) All cells (Stem cells and ordinary cells) ([1]; Retinoblastoma, 20.0 μM) | Survival rate (%) Stem cells ([6]; CML, 10.0 μM) | Survival rate (%) Stem cells [6, 7] | Survival rate (%) Stem cells ([6]; Glioma, 10.0 μM) | Survival rate (%) Stem cells ([6]; Laryngeal cancer, 10.0 μM) | Survival rate (%) Stem cells ([6]; Nasopharynx cancer, 10.0 μM) | Survival rate (%) Stem cells ([6]; Ovarian cancer, 10.0 μM)
87%: Survival rate (%) All cells (Stem cells and ordinary cells) ([1]; AML, 20.0 μM) | Survival rate (%) All cells (Stem cells and ordinary cells) ([1]; Brain tumor, 20.0 μM) | Survival rate (%) All cells (Stem cells and ordinary cells) ([1]; Breast cancer, 10.0 μM) | Survival rate (%) All cells (Stem cells and ordinary cells) ([1]; CLL, 20.0 μM) | Survival rate (%) All cells (Stem cells and ordinary cells) ([1]; Colorectal cancer, 10.0 μM) | Survival rate (%) All cells (Stem cells and ordinary cells) [1, 11] | Survival rate (%) All cells (Stem cells and ordinary cells) ([1]; Liver cancer, 20.0 μM) | Survival rate (%) All cells (Stem cells and ordinary cells) ([1]; Lung cancer, 20.0 μM) | Survival rate (%) Stem cells ([6]; AML, 10.0 μM) | Survival rate (%) Stem cells ([6]; Lung cancer, 10.0 μM)
73%: Survival rate (%) Stem cells ([6]; Brain tumor, 20.0 μM) | Survival rate (%) Stem cells ([6]; CLL, 20.0 μM) | Survival rate (%) Stem cells ([6]; Liver cancer, 20.0 μM)
79%: Survival rate (%) Stem cells ([6]; Gastric cancer, 10.0 μM) | Survival rate (%) Stem cells ([6]; Glioma, 20.0 μM) | Survival rate (%) Stem cells ([6]; Ovarian cancer, 20.0 μM)
92%: Survival rate (%) All cells (Stem cells and ordinary cells) ([1]; CML, 10.0 μM) | Survival rate (%) All cells (Stem cells and ordinary cells) [1, 7] | Survival rate (%) All cells (Stem cells and ordinary cells) ([1]; Laryngeal cancer, 10.0 μM) | Survival rate (%) All cells (Stem cells and ordinary cells) ([1]; Nasopharynx cancer, 10.0 μM) | Survival rate (%) All cells (Stem cells and ordinary cells) ([1]; Pancreatic cancer, 20.0 μM) | Survival rate (%) Stem cells ([2]; 20.0 μM)
91%: Survival rate (%) All cells (Stem cells and ordinary cells) ([1]; Brain tumor, 10.0 μM) | Survival rate (%) All cells (Stem cells and ordinary cells) ([1]; CLL, 10.0 μM) | Survival rate (%) All cells (Stem cells and ordinary cells) ([1]; Liver cancer, 10.0 μM) | Survival rate (%) All cells (Stem cells and ordinary cells) ([1]; Lung adenocarcinoma, 10.0 μM) | Survival rate (%) All cells (Stem cells and ordinary cells) ([1]; Malignant melanoma, 10.0 μM) | Survival rate (%) All cells (Stem cells and ordinary cells) ([1]; Prostate cancer, 10.0 μM) | Survival rate (%) All cells (Stem cells and ordinary cells) ([1]; Skin cancer, 10.0 μM)
89%: Survival rate (%) All cells (Stem cells and ordinary cells) ([1]; Brain glioma, 10.0 μM) | Survival rate (%) All cells (Stem cells and ordinary cells) ([1]; CML, 20.0 μM) | Survival rate (%) All cells (Stem cells and ordinary cells) [1, 8] | Survival rate (%) All cells (Stem cells and ordinary cells) [1, 10] | Survival rate (%) All cells (Stem cells and ordinary cells) ([1]; Laryngeal cancer, 20.0 μM) | Survival rate (%) All cells (Stem cells and ordinary cells) ([1]; Lung adenocarcinoma, 20.0 μM) | Survival rate (%) All cells (Stem cells and ordinary cells) ([1]; Nasopharynx cancer, 20.0 μM)
90%: Survival rate (%) All cells (Stem cells and ordinary cells) ([1]; Retinoblastoma, 10.0 μM)
88%: Survival rate (%) All cells (Stem cells and ordinary cells) ([1]; Colon adenocarcinoma, 10.0 μM) | Survival rate (%) All cells (Stem cells and ordinary cells) ([1]; Gastric cancer, 10.0 μM) | Survival rate (%) All cells (Stem cells and ordinary cells) [1, 9] | Survival rate (%) All cells (Stem cells and ordinary cells) ([1]; Malignant melanoma, 20.0 μM) | Survival rate (%) All cells (Stem cells and ordinary cells) ([1]; Ovarian cancer, 10.0 μM) | Survival rate (%) All cells (Stem cells and ordinary cells) ([1]; Prostate cancer, 20.0 μM) | Survival rate (%) All cells (Stem cells and ordinary cells) ([1]; Skin cancer, 20.0 μM) | Survival rate (%) Stem cells ([6]; Lung adenocarcinoma, 10.0 μM)
77%: Survival rate (%) Stem cells ([6]; CML, 20.0 μM) | Survival rate (%) Stem cells [6, 8] | Survival rate (%) Stem cells ([6]; Laryngeal cancer, 20.0 μM) | Survival rate (%) Stem cells ([6]; Nasopharynx cancer, 20.0 μM)
84%: Survival rate (%) Stem cells ([6]; Malignant melanoma, 10.0 μM) | Survival rate (%) Stem cells ([6]; Prostate cancer, 10.0 μM) | Survival rate (%) Stem cells ([6]; Retinoblastoma, 10.0 μM) | Survival rate (%) Stem cells ([6]; Skin cancer, 10.0 μM)
93%: Survival rate (%) All cells (Stem cells and ordinary cells) ([1]; Glioma, 10.0 μM) | Survival rate (%) All cells (Stem cells and ordinary cells) ([1]; Pancreatic cancer, 10.0 μM)
81%: Survival rate (%) All cells (Stem cells and ordinary cells) ([1]; Gastric cancer, 20.0 μM) | Survival rate (%) Stem cells ([6]; Breast cancer, 10.0 μM) | Survival rate (%) Stem cells ([6]; Colorectal cancer, 10.0 μM) | Survival rate (%) Stem cells [6, 11] | Survival rate (%) Stem cells ([6]; Lung adenocarcinoma, 20.0 μM)
72%: Survival rate (%) Stem cells ([6]; Gastric cancer, 20.0 μM)
86%: Survival rate (%) All cells (Stem cells and ordinary cells) ([1]; Brain glioma, 20.0 μM) | Survival rate (%) All cells (Stem cells and ordinary cells) ([1]; Glioma, 20.0 μM) | Survival rate (%) Stem cells ([6]; Pancreatic cancer, 10.0 μM)
83%: Survival rate (%) All cells (Stem cells and ordinary cells) ([1]; Breast cancer, 20.0 μM) | Survival rate (%) All cells (Stem cells and ordinary cells) ([1]; Colorectal cancer, 20.0 μM) | Survival rate (%) All cells (Stem cells and ordinary cells) [1, 12]
78%: Survival rate (%) Stem cells ([6]; Malignant melanoma, 20.0 μM) | Survival rate (%) Stem cells ([6]; Pancreatic cancer, 20.0 μM) | Survival rate (%) Stem cells ([6]; Prostate cancer, 20.0 μM) | Survival rate (%) Stem cells ([6]; Skin cancer, 20.0 μM)
0.31 ± 0.067 ng/mL: Content of IL-1β in culture supernatant of synoviocyte (x ± s) [3]
80%: Survival rate (%) Stem cells ([6]; Retinoblastoma, 20.0 μM)
95%: Survival rate (%) All cells (Stem cells and ordinary cells) ([2]; 20.0 μM)
74%: Survival rate (%) Stem cells ([6]; Colon adenocarcinoma, 20.0 μM)
